“And” between values parts separate entries of the source, which are not always exact repeats. Equal values may be shown once. Results filed as inconclusive are left out.
Tested on: MX-1 breast xenograft, nude mice, tumor weight T/C
Assay: NCI In Vivo Anticancer Drug Screen. Data for tumor model Human Mammary Carcinoma MX-1 Xenograft (intrarenal inoculation) in NU/NU Swiss (nude) mice
Settings: endpoint: mean tumor weight change, higher = larger tumour
Method in brief: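 Tumor-bearing mice were treated with test compound alongside a vehicle-treated control group. Survival or tumor size was measured, and activity is expressed as the treated-group value divided by the control-group value.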

[1] = dose: 50.0 mg/kg/injection, schedule: Q04DX003 (sc), vehicle: Klucel (hydroxypropylcellulose) (HPC)
[2] = dose: 100.0 mg/kg/injection, schedule: Q04DX003 (sc), vehicle: Klucel (hydroxypropylcellulose) (HPC)
[3] = dose: 200.0 mg/kg/injection, schedule: Q04DX003 (sc), vehicle: Klucel (hydroxypropylcellulose) (HPC)
[4] = dose: 25.0 mg/kg/injection, schedule: Q01DX010 (sc), vehicle: saline with Tween-80
[5] = dose: 50.0 mg/kg/injection, schedule: Q01DX010 (sc), vehicle: saline with Tween-80
[6] = dose: 100.0 mg/kg/injection, schedule: Q01DX010 (sc), vehicle: saline with Tween-80

CC(=O)NC(CCc1ccc(Cl)c(Cl)c1)c1cccc(O)c(=O)c1 (stereo not given)
T/C [1]: 95 % of control
T/C [2]: 69 % of control
T/C [3]: 90 % of control
T/C (dose: 400.0 mg/kg/injection, schedule: Q04DX003 (sc), vehicle: Klucel (hydroxypropylcellulose) (HPC)): 119 % of control

N#C[Se-].c1ccc([Te+](c2ccccc2)c2ccccc2)cc1
T/C (dose: 3.75 mg/kg/injection, schedule: Q04DX003 (sc), vehicle: Klucel (hydroxypropylcellulose) (HPC)): 101 % of control
T/C (dose: 7.5 mg/kg/injection, schedule: Q04DX003 (sc), vehicle: Klucel (hydroxypropylcellulose) (HPC)): 118 % of control
T/C (dose: 30.0 mg/kg/injection, schedule: Q04DX003 (sc), vehicle: Klucel (hydroxypropylcellulose) (HPC)): 75 % of control

O=C[C@@H](CO)O[C@H](C=O)n1cnc2c(=O)[nH]cnc21
T/C (dose: 100.0 mg/kg/injection, schedule: Q04DX003 (sc), vehicle: saline with Tween-80): 41 % of control
T/C (dose: 200.0 mg/kg/injection, schedule: Q04DX003 (sc), vehicle: saline with Tween-80): 39 % of control and 63 % of control
T/C (dose: 300.0 mg/kg/injection, schedule: Q04DX003 (sc), vehicle: saline with Tween-80): 47 % of control

Nc1n[n+](-c2ccc(Cl)cc2)no1
T/C (dose: 25.0 mg/kg/injection, schedule: Q04DX003 (sc), vehicle: water): 93 % of control
T/C (dose: 50.0 mg/kg/injection, schedule: Q04DX003 (sc), vehicle: water): 102 % of control

C/C(=N/NC(N)=S)c1ccc2ccccc2c1
T/C [4]: 75 % of control
T/C [5]: 81 % of control
T/C [6]: 29 % of control

CCOC(=O)NC1=C(N2CC2)C(=O)C(NC(=O)OCC)=C(N2CC2)C1=O
T/C (dose: 1.56 mg/kg/injection, schedule: Q01DX010 (sc), vehicle: saline): 1 % of control
T/C (dose: 3.13 mg/kg/injection, schedule: Q01DX010 (sc), vehicle: saline): 3 % of control
T/C (dose: 3.13 mg/kg/injection, schedule: Q04DX003 (ip), vehicle: suspension in saline): 41 % of control
T/C (dose: 6.25 mg/kg/injection, schedule: Q04DX003 (ip), vehicle: suspension in saline): -44 % of control
T/C (dose: 12.5 mg/kg/injection, schedule: Q04DX003 (ip), vehicle: suspension in saline): -100 % of control

CCN(Cc1ccc(Cl)c(Cl)c1)c1ccc2nc(N)nc(N)c2c1C
T/C (dose: 9.38 mg/kg/injection, schedule: Q04DX003 (sc), vehicle: distilled water + Tween-80): 93 % of control
T/C (dose: 18.75 mg/kg/injection, schedule: Q04DX003 (sc), vehicle: distilled water + Tween-80): 86 % of control

CCOc1cc2c(cc1C(C)c1ccc(OC)cc1)OCO2 (stereo not given)
T/C (dose: 150.0 mg/kg/injection, schedule: Q04DX003 (sc), vehicle: distilled water + alcohol): 43 % of control
T/C (dose: 300.0 mg/kg/injection, schedule: Q04DX003 (sc), vehicle: distilled water + alcohol): 31 % of control
T/C (dose: 600.0 mg/kg/injection, schedule: Q04DX003 (sc), vehicle: distilled water + alcohol): 19 % of control
T/C (dose: 1200.0 mg/kg/injection, schedule: Q04DX003 (sc), vehicle: distilled water + alcohol): 52 % of control

c1cc2c(c(CC3CO3)c1CC1CO1)OCCOCCOCCOCCO2 (stereo not given)
T/C (dose: 75.0 mg/kg/injection, schedule: Q04DX003 (ip), vehicle: saline + alcohol): 57 % of control
T/C (dose: 150.0 mg/kg/injection, schedule: Q04DX003 (ip), vehicle: saline + alcohol): 65 % of control
T/C (dose: 300.0 mg/kg/injection, schedule: Q04DX003 (ip), vehicle: saline + alcohol): 78 % of control

COc1ccc(/C=C/C(=O)c2cc(C(=O)O)c(OC)cc2OC)cc1OC
T/C (dose: 300.0 mg/kg/injection, schedule: Q04DX003 (sc), vehicle: suspension in saline): 99 % of control

CCCC(=O)Oc1ccc(/C=N/NC(N)=S)nc1
T/C [5]: 101 % of control
T/C (dose: 200.0 mg/kg/injection, schedule: Q01DX010 (sc), vehicle: saline with Tween-80): 113 % of control

Cc1cc(NCCCCCCNc2cc(C)nc3cc(N(C)C)ccc23)c2ccc(N(C)C)cc2n1
T/C (dose: 37.5 mg/kg/injection, schedule: Q04DX003 (sc), vehicle: distilled water + Tween-80 + alcohol): 34 % of control
T/C (dose: 75.0 mg/kg/injection, schedule: Q04DX003 (sc), vehicle: distilled water + Tween-80 + alcohol): 49 % of control
T/C (dose: 150.0 mg/kg/injection, schedule: Q04DX003 (sc), vehicle: distilled water + Tween-80 + alcohol): 49 % of control
T/C (dose: 300.0 mg/kg/injection, schedule: Q04DX003 (sc), vehicle: distilled water + Tween-80 + alcohol): 30 % of control

Nc1nc(N)c2cc(CNc3ccc(C(=O)NC(CC(=O)O)CC(=O)O)cc3)ccc2n1
T/C (dose: 25.0 mg/kg/injection, schedule: Q04DX003 (sc), vehicle: Klucel (hydroxypropylcellulose) (HPC)): 86 % of control
T/C [1]: 96 % of control
T/C [2]: 75 % of control
T/C [3]: 85 % of control

[N-]=[N+]=CC(=O)CCC(=O)C=[N+]=[N-]
T/C (dose: 3.0 mg/kg/injection, schedule: Q01DX010 (sc), vehicle: DMSO): -72 % of control
T/C (dose: 6.0 mg/kg/injection, schedule: Q01DX010 (sc), vehicle: DMSO): -42 % of control
T/C (dose: 12.0 mg/kg/injection, schedule: Q01DX010 (sc), vehicle: DMSO): 5 % of control
T/C (dose: 15.0 mg/kg/injection, schedule: Q04DX003 (sc), vehicle: DMSO): 6 % of control
T/C (dose: 15.0 mg/kg/injection, schedule: Q04DX003 (sc), vehicle: saline): 23 % of control
T/C (dose: 30.0 mg/kg/injection, schedule: Q04DX003 (sc), vehicle: DMSO): 3 % of control
T/C (dose: 30.0 mg/kg/injection, schedule: Q04DX003 (sc), vehicle: saline): 16 % of control
T/C (dose: 60.0 mg/kg/injection, schedule: Q04DX003 (sc), vehicle: saline): 6 % of control
T/C (dose: 120.0 mg/kg/injection, schedule: Q04DX003 (sc), vehicle: DMSO): -13 % of control
T/C (dose: 120.0 mg/kg/injection, schedule: Q04DX003 (sc), vehicle: saline): 8 % of control

Cn1cnc([N+](=O)[O-])c1S(=O)(=O)NCN1CCOCC1
T/C (dose: 25.0 mg/kg/injection, schedule: Q01DX010 (sc), vehicle: Klucel (hydroxypropylcellulose) (HPC)): 94 % of control
T/C (dose: 50.0 mg/kg/injection, schedule: Q01DX010 (sc), vehicle: Klucel (hydroxypropylcellulose) (HPC)): 76 % of control
T/C (dose: 100.0 mg/kg/injection, schedule: Q01DX010 (sc), vehicle: Klucel (hydroxypropylcellulose) (HPC)): 94 % of control
T/C (dose: 200.0 mg/kg/injection, schedule: Q01DX010 (sc), vehicle: Klucel (hydroxypropylcellulose) (HPC)): 78 % of control

[CH3][Sn]([CH3])([Cl])[S]CCN
T/C (dose: 18.75 mg/kg/injection, schedule: Q04DX003 (sc), vehicle: suspension in saline): 77 % of control
T/C (dose: 75.0 mg/kg/injection, schedule: Q04DX003 (sc), vehicle: suspension in saline): 157 % of control

CC1=C(/C=C/C(C)=C/C=C/C(C)=C/C(=O)O)C(C)(C)CCC1
T/C [4]: 86 % of control
T/C [5]: 58 % of control
T/C [6]: 52 % of control

CN(C)CC(Cl)CCl (stereo not given)
T/C (dose: 75.0 mg/kg/injection, schedule: Q04DX003 (sc), vehicle: saline): 50 % of control
T/C (dose: 150.0 mg/kg/injection, schedule: Q04DX003 (sc), vehicle: saline): 85 % of control
T/C (dose: 300.0 mg/kg/injection, schedule: Q04DX003 (sc), vehicle: saline): 28 % of control

CC1=C(O)C(=O)[C@@H]2O[C@@H]2C1=O
T/C (dose: 2.35 mg/kg/injection, schedule: Q04DX003 (sc), vehicle: saline): 86 % of control
T/C (dose: 4.69 mg/kg/injection, schedule: Q04DX003 (sc), vehicle: saline): 82 % of control
T/C (dose: 9.38 mg/kg/injection, schedule: Q04DX003 (sc), vehicle: saline): 119 % of control
T/C (dose: 18.75 mg/kg/injection, schedule: Q04DX003 (sc), vehicle: saline): 63 % of control

COc1cc(C)c(C2NC(=O)c3ccccc3N2)cc1C (stereo not given)
T/C (dose: 300.0 mg/kg/injection, schedule: Q04DX003 (sc), vehicle: Klucel (hydroxypropylcellulose) (HPC)): 53 % of control
T/C (dose: 600.0 mg/kg/injection, schedule: Q04DX003 (sc), vehicle: Klucel (hydroxypropylcellulose) (HPC)): 115 % of control
T/C (dose: 1200.0 mg/kg/injection, schedule: Q04DX003 (sc), vehicle: Klucel (hydroxypropylcellulose) (HPC)): 93 % of control
T/C (dose: 2400.0 mg/kg/injection, schedule: Q04DX003 (sc), vehicle: Klucel (hydroxypropylcellulose) (HPC)): 90 % of control

C/C(=N\NC(=S)N1CC2CCC(CC2)C1)c1cccc(C)n1
T/C (dose: 50.0 mg/kg/injection, schedule: Q04DX003 (ip), vehicle: saline with Tween-80): 79 % of control

CN1CCN(CCCN2c3ccccc3Sc3ccc(C(F)(F)F)cc32)CC1
T/C (dose: 25.0 mg/kg/injection, schedule: Q01DX010 (sc), vehicle: saline): 107 % of control
T/C (dose: 50.0 mg/kg/injection, schedule: Q01DX010 (sc), vehicle: saline): 61 % of control and 73 % of control
T/C (dose: 100.0 mg/kg/injection, schedule: Q01DX010 (sc), vehicle: saline): 31 % of control and 52 % of control
T/C (dose: 200.0 mg/kg/injection, schedule: Q01DX010 (sc), vehicle: saline): 32 % of control

Reference: PubChem BioAssay AID296 (DTP/NCI, 2004)
